Key:
Assay type in all cases: in vivo
[1] = test system: bedstraw (Galium aparine); assay: Test B pre-/postemergence; set-up: key: 0 is no effect; 10 is complete control; conditions: for Bedstraw plant response rating: Preemergence
Method in brief: (§1)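 Compounds in a surfactant-containing, non-phytotoxic solvent blend are applied to freshly planted seed (preemergence) and, concurrently, to seedlings of 2 to 18 cm at 1–4 leaves (postemergence). Plants stay in the greenhouse twelve to sixteen days and are then scored visually from 0 (no effect) to 10 (complete control).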

[2] = test system: blackgrass (Alopecurus myosuroides); assay: Test B pre-/postemergence; set-up: key: 0 is no effect; 10 is complete control; conditions: for Blackgrass plant response rating: Preemergence
Method in brief: as §1

[3] = test system: broadleaf signalgrass (Brachiaria decumbens); assay: Test B pre-/postemergence; set-up: key: 0 is no effect; 10 is complete control; conditions: for B. signalgrass plant response rating: Preemergence
Method in brief: as §1

[4] = test system: cocklebur (Xanthium strumarium); assay: Test B pre-/postemergence; set-up: key: 0 is no effect; 10 is complete control; conditions: for Cocklebur plant response rating: Preemergence
Method in brief: as §1

[5] = test system: corn (Zea mays); assay: Test B pre-/postemergence; set-up: key: 0 is no effect; 10 is complete control; conditions: for Corn plant response rating: Preemergence
Method in brief: as §1

[6] = test system: crabgrass (Digitaria sanguinalis); assay: Test B pre-/postemergence; set-up: key: 0 is no effect; 10 is complete control; conditions: for Crabgrass plant response rating: Preemergence
Method in brief: as §1

[7] = test system: giant foxtail (Setaria faberii); assay: Test B pre-/postemergence; set-up: key: 0 is no effect; 10 is complete control
Method in brief: as §1

[8] = test system: momingglory (Ipomoea hederacea); assay: Test B pre-/postemergence; set-up: key: 0 is no effect; 10 is complete control
Method in brief: as §1

[9] = test system: pigweed (Amaranthus retroflexus); assay: Test B pre-/postemergence; set-up: key: 0 is no effect; 10 is complete control
Method in brief: as §1

[10] = test system: purple nutsedge (Cyperus rotundus); assay: Test B pre-/postemergence; set-up: key: 0 is no effect; 10 is complete control; conditions: Postemergence
Method in brief: as §1

[11] = test system: rape (Brassica napus); assay: Test B pre-/postemergence; set-up: key: 0 is no effect; 10 is complete control
Method in brief: as §1

[12] = test system: soybean (Glycine max); assay: Test B pre-/postemergence; set-up: key: 0 is no effect; 10 is complete control
Method in brief: as §1

[13] = test system: sugar beet (Beta vulgaris); assay: Test B pre-/postemergence; set-up: key: 0 is no effect; 10 is complete control
Method in brief: as §1

[14] = test system: velvetleaf (Abutilon theophrasti); assay: Test B pre-/postemergence; set-up: key: 0 is no effect; 10 is complete control
Method in brief: as §1

[15] = test system: wheat (Triticum aestivum); assay: Test B pre-/postemergence; set-up: key: 0 is no effect; 10 is complete control
Method in brief: as §1

[16] = test system: wild oat (Avena fatua); assay: Test B pre-/postemergence; set-up: key: 0 is no effect; 10 is complete control
Method in brief: as §1

[17] = test system: bamyardgrass (Echinochloa crus-galli); assay: Test B flood test
Method in brief: (§2)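 Read-out is a visual response score from 0 (no effect) to 10 (complete control), assigned by comparison with untreated controls. Treatment was applied at the 2-leaf stage, and plants stayed in the greenhouse for twelve to sixteen days before scoring.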

[18] = test system: duck salad (Heteranthera limosa); assay: Test B flood test
Method in brief: as §2

[19] = test system: rice (Oryza sativa); assay: Test B flood test
Method in brief: as §2

[20] = test system: smallflower flatsedge (Cyperus difformis); assay: Test B flood test
Method in brief: as §2

[21] = Rate 250 g/ha, Postemergence (so in the source)
[22] = Rate 62 g/ha, Postemergence (flood test)
[23] = Rate 125 g/ha, Postemergence, flood test
[24] = Rate 250 g/ha, Postemergence (flood test species)
[25] = Rate 125 g/ha, Postemergence section (flood test species)

SMILES: CCc1cnc(-c2ccc(C(F)(F)F)cc2)nc1Cc1cccc(OC(F)(F)F)c1 [Compound 41]
- Plant response rating, Bedstraw ([1]; Rate 62 g/ha, Postemergence): 9
- Bedstraw plant response rating ([1]; Rate 62 g/ha): 2
- Plant response rating, Bedstraw ([1]; Rate 125 g/ha, Postemergence): 9
- Bedstraw plant response rating ([1]; Rate 125 g/ha): 2
- Plant response rating, Bedstraw ([1]; Rate 250 g/ha, Postemergence): 10
- Plant response rating, Bedstraw [1, 21]: 8
- Plant response rating, Blackgrass ([2]; Rate 62 g/ha, Postemergence): 5
- Blackgrass plant response rating ([2]; Rate 62 g/ha): 7
- Plant response rating, Blackgrass ([2]; Rate 125 g/ha, Postemergence): 6
- Blackgrass plant response rating ([2]; Rate 125 g/ha): 9
- Plant response rating, Blackgrass ([2]; Rate 250 g/ha, Postemergence): 8
- Plant response rating, Blackgrass [2, 21]: 10
- Plant response rating, B. signalgrass ([3]; Rate 62 g/ha, Postemergence): 2
- B. signalgrass plant response rating ([3]; Rate 62 g/ha): 2
- Plant response rating, B. signalgrass ([3]; Rate 125 g/ha, Postemergence): 3
- B. signalgrass plant response rating ([3]; Rate 125 g/ha): 6
- Plant response rating, B. signalgrass ([3]; Rate 250 g/ha, Postemergence): 6
- Plant response rating, B. signalgrass ([3]; Rate 250 g/ha, Postemergence as printed in head r139 (second section for compounds 26-50)): 7
- Plant response rating, Cocklebur ([4]; Rate 62 g/ha, Postemergence): 7
- Cocklebur plant response rating ([4]; Rate 62 g/ha): 0
- Plant response rating, Cocklebur ([4]; Rate 125 g/ha, Postemergence): 8
- Cocklebur plant response rating ([4]; Rate 125 g/ha): 0
- Plant response rating, Cocklebur ([4]; Rate 250 g/ha, Postemergence): 9
- Plant response rating, Cocklebur [4, 21]: 0
- Plant response rating, Corn ([5]; Rate 62 g/ha, Postemergence): 2
- Corn plant response rating ([5]; Rate 62 g/ha): 0
- Plant response rating, Corn ([5]; Rate 125 g/ha, Postemergence): 2
- Corn plant response rating ([5]; Rate 125 g/ha): 1
- Plant response rating, Corn ([5]; Rate 250 g/ha, Postemergence): 3
- Plant response rating, Corn [5, 21]: 1
- Plant response rating, Crabgrass ([6]; Rate 62 g/ha, Postemergence): 7
- Crabgrass plant response rating ([6]; Rate 62 g/ha): 8
- Plant response rating, Crabgrass ([6]; Rate 125 g/ha, Postemergence): 9
- Crabgrass plant response rating ([6]; Rate 125 g/ha): 9
- Plant response rating, Crabgrass ([6]; Rate 250 g/ha, Postemergence): 10
- Plant response rating, Crabgrass [6, 21]: 9
- Plant response rating, Giant foxtail ([7]; Rate 62 g/ha, Postemergence): 2
- Giant foxtail plant response rating ([7]; Rate 62 g/ha, Preemergence): 6
- Giant foxtail plant response rating ([7]; Rate 125 g/ha, Postemergence): 6
- Giant foxtail plant response rating ([7]; Rate 125 g/ha, Preemergence): 9
- Plant response rating, Giant foxtail ([7]; Rate 250 g/ha, Postemergence): 9
- Plant response rating, Giant foxtail [7, 21]: 10
- Plant response rating, Morningglory ([8]; Rate 62 g/ha, Postemergence): 8
- Morningglory plant response rating ([8]; Rate 62 g/ha, Preemergence): 1
- Morningglory plant response rating ([8]; Rate 125 g/ha, Postemergence): 8
- Morningglory plant response rating ([8]; Rate 125 g/ha, Preemergence): 1
- Plant response rating, Morningglory ([8]; Rate 250 g/ha, Postemergence): 8
- Plant response rating, Morningglory [8, 21]: 2
- Plant response rating, Redroot pigweed ([9]; Rate 62 g/ha, Postemergence): 9
- Redroot pigweed plant response rating ([9]; Rate 62 g/ha, Preemergence): 4
- Redroot pigweed plant response rating ([9]; Rate 125 g/ha, Postemergence): 10
- Redroot pigweed plant response rating ([9]; Rate 125 g/ha, Preemergence): 10
- Plant response rating, Redroot pigweed ([9]; Rate 250 g/ha, Postemergence): 10
- Plant response rating, Redroot pigweed [9, 21]: 10
- Plant response rating, Nutsedge ([10]; Rate 62 g/ha): 0
- Nutsedge plant response rating ([10]; Rate 125 g/ha): 0
- Plant response rating, Nutsedge ([10]; Rate 250 g/ha): 0
- Plant response rating, Rape ([11]; Rate 62 g/ha, Postemergence): 10
- Rape plant response rating ([11]; Rate 62 g/ha, Preemergence): 3
- Rape plant response rating ([11]; Rate 125 g/ha, Postemergence): 10
- Rape plant response rating ([11]; Rate 125 g/ha, Preemergence): 3
- Plant response rating, Rape ([11]; Rate 250 g/ha, Postemergence): 10
- Plant response rating, Rape [11, 21]: 4
- Plant response rating, Soybean ([12]; Rate 62 g/ha, Postemergence): 5
- Soybean plant response rating ([12]; Rate 62 g/ha, Preemergence): 0
- Soybean plant response rating ([12]; Rate 125 g/ha, Postemergence): 7
- Plant response rating, Soybean ([12]; Rate 125 g/ha, Preemergence): 0
- Plant response rating, Soybean ([12]; Rate 250 g/ha, Postemergence): 7
- Plant response rating, Soybean [12, 21]: 1
- Plant response rating, Sugarbeets ([13]; Rate 62 g/ha, Postemergence): 10
- Sugarbeets plant response rating ([13]; Rate 62 g/ha, Preemergence): 3
- Sugarbeets plant response rating ([13]; Rate 125 g/ha, Postemergence): 10
- Plant response rating, Sugarbeets ([13]; Rate 125 g/ha, Preemergence): 6
- Plant response rating, Sugarbeets ([13]; Rate 250 g/ha, Postemergence): 10
- Plant response rating, Sugarbeets [13, 21]: 8
- Plant response rating, Velvetleaf ([14]; Rate 62 g/ha, Postemergence): 8
- Velvetleaf plant response rating ([14]; Rate 62 g/ha, Preemergence): 1
- Velvetleaf plant response rating ([14]; Rate 125 g/ha, Postemergence): 8
- Plant response rating, Velvetleaf ([14]; Rate 125 g/ha, Preemergence): 3
- Plant response rating, Velvetleaf ([14]; Rate 250 g/ha, Postemergence): 8
- Plant response rating, Velvetleaf [14, 21]: 10
- Wheat plant response rating ([15]; Rate 62 g/ha, Postemergence): 2
- Wheat plant response rating ([15]; Rate 62 g/ha, Preemergence): 1
- Wheat plant response rating ([15]; Rate 125 g/ha, Postemergence): 3
- Plant response rating, Wheat ([15]; Rate 125 g/ha, Preemergence): 1
- Plant response rating, Wheat ([15]; Rate 250 g/ha, Postemergence): 3
- Plant response rating, Wheat [15, 21]: 2
- Wild oats plant response rating ([16]; Rate 62 g/ha, Postemergence): 4
- Wild oats plant response rating ([16]; Rate 62 g/ha, Preemergence): 4
- Wild oats plant response rating ([16]; Rate 125 g/ha, Postemergence): 5
- Plant response rating, Wild oats ([16]; Rate 125 g/ha, Preemergence): 9
- Plant response rating, Wild oats ([16]; Rate 250 g/ha, Postemergence): 7
- Plant response rating, Wild oats [16, 21]: 9
- Plant response rating, Barnyardgrass [17, 22]: 5
- Plant response rating, Barnyardgrass [17, 23]: 5
- Plant response rating, Barnyardgrass [17, 24]: 5
- Plant response rating, Ducksalad [18, 22]: 2
- Plant response rating, Ducksalad [18, 23]: 3
- Plant response rating, Ducksalad [18, 24]: 5
- Plant response rating, Rice [19, 22]: 5
- Rice plant response rating [19, 25]: 5
- Plant response rating, Rice [19, 24]: 6
- Plant response rating, S. Flatsedge [20, 22]: 5
- S. Flatsedge plant response rating [20, 25]: 7
- Plant response rating, S. Flatsedge [20, 24]: 9

Reference: US6525001B1, “Substituted pyrimidine and pyridine herbicides” (Mid-American Commercialization Corporation, priority 1997, dated 2003)
